Results as given in PubChem BioAssay (NCI).
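Results reflect a 48-hour exposure of cells in 96-well plates to compound at five concentrations. TGI denotes the concentration required for complete inhibition of growth.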

Tests used:
Assay in all cases: NCI tumour cell line growth inhibition, 48 h
A549 NSCLC = test system: A549 NSCLC
ACHN renal = test system: ACHN renal
DU-145 prostate = test system: DU-145 prostate
EKVX NSCLC = test system: EKVX NSCLC
HCC-2998 colon = test system: HCC-2998 colon
K-562 leukemia = test system: K-562 leukemia
NCI-H226 lung = test system: NCI-H226 lung
NCI/ADR-RES ovarian = test system: NCI/ADR-RES ovarian
PC-3 prostate = test system: PC-3 prostate
SF-295 CNS = test system: SF-295 CNS
SN12C renal = test system: SN12C renal
SNB-19 CNS = test system: SNB-19 CNS
SW-620 colon = test system: SW-620 colon
TK-10 renal = test system: TK-10 renal
UACC-257 melanoma = test system: UACC-257 melanoma

| Compound | TGI (A549 NSCLC) [µM] | TGI (ACHN renal) [µM] | TGI (DU-145 prostate) [µM] | TGI (EKVX NSCLC) [µM] | TGI (HCC-2998 colon) [µM] | TGI (K-562 leukemia) [µM] | TGI (NCI-H226 lung) [µM] | TGI (NCI/ADR-RES ovarian) [µM] | TGI (PC-3 prostate) [µM] | TGI (SF-295 CNS) [µM] | TGI (SN12C renal) [µM] | TGI (SNB-19 CNS) [µM] | TGI (SW-620 colon) [µM] | TGI (TK-10 renal) [µM] | TGI (UACC-257 melanoma) [µM] |
| --- | --- | --- | --- | --- | --- | --- | --- | --- | --- | --- | --- | --- | --- | --- | --- |
| Nc1ccc(-c2ncc3cc(-c4cccc(-c5cc6cnc(-c7ccc(N)cc7)nc6c6ccccc56)c4)c4ccccc4c3n2)cc1 | > 100 | > 100 | > 100 | > 100 | > 100 | > 100 | > 100 | > 100 | > 100 | > 100 | > 100 | > 100 | > 100 | > 100 | > 100 |
| N#Cc1nc(C2CC2)oc1N | > 100 | > 100 | > 100 | > 100 | > 100 | > 100 | > 100 | > 100 | > 100 | > 100 | > 100 | > 100 | > 100 | > 100 | > 100 |
| CCN(CC)c1ccc2c(c1)OC(=O)C(c1nnc(-c3ccc([N+](=O)[O-])cc3)o1)C2 (stereo unspecified) | > 100 | > 100 | > 100 | > 100 | > 100 | > 100 | > 100 | > 100 | > 100 | > 100 | – | > 100 | > 100 | > 100 | > 100 |
| CCOC(=O)N1CCN(c2c(C)nc(C)[nH]c2=O)CC1 | > 100 | > 100 | > 100 | > 100 | > 100 | > 100 | > 100 | > 100 | > 100 | > 100 | > 100 | > 100 | > 100 | > 100 | > 100 |
| O=C1c2cccc3cccc(c23)C(=O)N1CCCNCCCCNCCCN1C(=O)c2cccc3cccc(c23)C1=O | 0.833 | 6.47 | 1.14 | 3.28 | 0.568 | 0.337 | 2.5 | 32.3 | 1.05 | 3.4 | 2.37 | 4.35 | 3.54 | 7.62 | 1.91 |
| CC1CC(C)[C@H](O)C([C@H](O)CC2CC(=O)N(C)C(=O)C2)C1 (stereo partly specified) | > 100 | > 100 | > 100 | > 100 | > 100 | > 100 | > 100 | > 100 | > 100 | > 100 | > 100 | > 100 | > 100 | > 100 | > 100 |
| NCCC(=O)N[C@H](Cc1cc(O)c(O)c(SCC(NC(=O)CC[C@H](N)C(=O)O)C(=O)NCC(=O)O)c1)C(=O)O (stereo partly specified) | > 50 | > 50 | > 50 | > 50 | > 50 | > 50 | > 50 | > 50 | > 50 | > 50 | > 50 | > 50 | > 50 | > 50 | > 50 |
| Cn1c(NN)nc(-c2ccc([N+](=O)[O-])cc2)c(C#N)c1=O | 43.4 | 24.7 | 30 | 44.1 | 26.5 | > 100 | 28.7 | > 100 | 43.5 | 29.9 | 29 | 26.3 | 25.2 | 27.4 | 29.1 |
| COC(=O)c1ccccc1/C=C1/Cc2cccc(C)c2C1=O | > 100 | > 100 | > 100 | > 100 | > 100 | > 100 | > 100 | > 100 | > 100 | > 100 | > 100 | – | > 100 | > 100 | > 100 |
| COc1cc(C2S/C(=C/c3ccccc3)C(=O)N2c2cc(Cl)ccc2Cl)cc(OC)c1OC (stereo unspecified) | > 100 | > 100 | > 100 | > 100 | > 100 | > 100 | > 100 | > 100 | > 100 | > 100 | > 100 | > 100 | > 100 | > 100 | > 100 |
| COc1cc(O)c2c(=O)c(OC)c(-c3ccc4c(c3)OCO4)oc2c1 | > 100 | > 100 | > 100 | > 100 | > 100 | > 100 | > 100 | > 100 | > 100 | > 92.2 | > 100 | > 84.1 | > 100 | > 100 | > 100 |
| CCC(C)C(C(=O)N/N=C1/SCC(=O)N1C)C(=O)N/N=C1/SCC(=O)N1C (stereo unspecified) | > 100 | > 100 | > 100 | > 100 | > 100 | > 100 | > 100 | > 100 | > 100 | > 100 | > 100 | > 100 | > 100 | > 100 | > 100 |
| CC1=C(C(=O)N[C@@H](Cc2ccccc2)C(=O)O)N2C(=O)[C@@H](NC(=O)[C@@H](N)CC(C)C)[C@H]2SC1 | > 100 | > 100 | > 100 | > 100 | > 100 | > 100 | > 100 | > 100 | > 100 | > 100 | > 100 | > 100 | > 100 | > 100 | > 100 |
| CC1=NN(c2nc(N)nc(/C(C#N)=C/c3ccc([N+](=O)[O-])o3)n2)C(C)(C)C1 | 29.8 | 3.49 | 17 | 9.04 | 39.4 | 1.13 | 6.9 | > 49.9 | 21.5 | 33.8 | – | 29.7 | 3.71 | 4.52 | 27.2 |
| Cc1cccc(-n2c(C)nc3ccc(NC4OC(CO)C(O)C(O)C4O)cc3c2=O)c1 (stereo unspecified) | – | > 100 | > 100 | > 100 | > 100 | > 100 | > 100 | > 100 | > 100 | > 100 | > 100 | > 100 | > 100 | > 100 | > 100 |
